Assay results reported in ChEMBL document CHEMBL3046469, “Fungicidal Activities of 2-(Substituted Phenoxymethyl)phenyl-2-methoxyiminoacaetamide Derivatives” (1998).

Experiments:
Assay type in all cases: functional
Botrytis cinerea [1] = assay: Fungicidal activity against Botryotinia fuckeliana assessed as cucumber gray mold disease control at 125 ppm foliar application […] at 22 +/- 2 degC by preventive manner
[2] = test system: Blumeria graminis f. sp. tritici; assay: Fungicidal activity against Blumeria graminis f. sp. tritici assessed as wheat powdery mildew disease control at 125 ppm foliar application for 48 hr before inoculation by preventive manner
[3] = test system: Pseudoperonospora cubensis; assay: Fungicidal activity against Pseudoperonospora cubensis assessed as cucumber downy mildew disease control at 125 ppm foliar application 24 hr before inoculation onto the abaxial(untreated) surface of leaf by preventive manner
Thanatephorus cucumeris [4] = assay: Fungicidal activity against Thanatephorus cucumeris assessed as rice sheath blight disease control at 125 ppm foliar application for 24 hr before inoculation at 26 +/- 2 degC measured after 5 days by preventive manner
[5] = test system: Pseudoperonospora cubensis; assay: Fungicidal activity against Pseudoperonospora cubensis assessed as cucumber downy mildew disease control at 125 ppm foliar application 24 hr before inoculation onto the adaxial(treated) surface of leaf by preventive manner
Pyricularia oryzae [6] = assay: Fungicidal activity against Magnaporthe oryzae assessed as rice blast disease control at 125 ppm foliar application for 24 hr before inoculation at 27 +/- 2 degC measured after 5 days by preventive manner
Podosphaera fuliginea [7] = assay: Fungicidal activity against Podosphaera fuliginea assessed as cucumber powdery mildew control at 125 ppm foliar application 24 hr before inoculation at 23 +/- 2 degC by preventive manner
Podosphaera fuliginea [8] = assay: Fungicidal activity against Podosphaera fuliginea assessed as cucumber powdery mildew control at 7.8 ppm foliar application 24 hr before inoculation at 23 +/- 2 degC by preventive manner
[9] = test system: Pseudoperonospora cubensis; assay: Fungicidal activity against Pseudoperonospora cubensis assessed as cucumber downy mildew disease control at 7.8 ppm foliar application 24 hr before inoculation onto the adaxial(treated) surface of leaf by preventive manner
Botrytis cinerea [10] = assay: Fungicidal activity against Botryotinia fuckeliana assessed as cucumber gray mold disease control at 31.3 ppm foliar application […] at 22 +/- 2 degC by preventive manner
[11] = test system: Pseudoperonospora cubensis; assay: Fungicidal activity against Pseudoperonospora cubensis assessed as cucumber downy mildew disease control at 31.3 ppm foliar application 24 hr before inoculation onto the abaxial(untreated) surface of leaf by preventive manner
Pyricularia oryzae [12] = assay: Fungicidal activity against Magnaporthe oryzae assessed as rice blast disease control at 31.3 ppm foliar application for 24 hr before inoculation at 27 +/- 2 degC measured after 5 days by preventive manner
[13] = test system: Blumeria graminis f. sp. tritici; assay: Fungicidal activity against Blumeria graminis f. sp. tritici assessed as wheat powdery mildew disease control at 7.8 ppm foliar application 48 24 hr before inoculation by preventive manner
[14] = test system: Pseudoperonospora cubensis; assay: Fungicidal activity against Pseudoperonospora cubensis assessed as cucumber downy mildew disease control at 2 ppm foliar application 24 hr before inoculation onto the adaxial(treated) surface of leaf by preventive manner
[15] = test system: Pseudoperonospora cubensis; assay: Fungicidal activity against Pseudoperonospora cubensis assessed as cucumber downy mildew disease control at 7.8 ppm foliar application 24 hr before inoculation onto the abaxial(untreated) surface of leaf by preventive manner
Botrytis cinerea [16] = assay: Fungicidal activity against Botryotinia fuckeliana assessed as cucumber gray mold disease control at 7.8 ppm foliar application […] at 22 +/- 2 degC by preventive manner
Thanatephorus cucumeris [17] = assay: Fungicidal activity against Thanatephorus cucumeris assessed as rice sheath blight disease control at 31.3 ppm foliar application for 24 hr before inoculation at 26 +/- 2 degC measured after 5 days by preventive manner
[18] = test system: Blumeria graminis f. sp. tritici; assay: Fungicidal activity against Blumeria graminis f. sp. tritici assessed as wheat powdery mildew disease control at 2 ppm foliar application for 48 hr before inoculation by preventive manner
Podosphaera fuliginea [19] = assay: Fungicidal activity against Podosphaera fuliginea assessed as cucumber powdery mildew control at 31.3 ppm foliar application 24 hr before inoculation at 23 +/- 2 degC by preventive manner
Podosphaera fuliginea [20] = assay: Fungicidal activity against Podosphaera fuliginea assessed as cucumber powdery mildew control at 2 ppm foliar application 24 hr before inoculation at 23 +/- 2 degC by preventive manner
[21] = test system: Blumeria graminis f. sp. tritici; assay: Fungicidal activity against Blumeria graminis f. sp. tritici assessed as wheat powdery mildew disease control at 31.3 ppm foliar application for 48 hr before inoculation by preventive manner

Compound | Activity [2] [%] | Activity [3] [%] | Activity (Thanatephorus cucumeris [4]) [%] | Activity (Pyricularia oryzae [6]) [%] | Activity (Podosphaera fuliginea [8]) [%] | Activity [9] [%] | Activity (Pyricularia oryzae [12]) [%] | Activity [14] [%] | Activity (Botrytis cinerea [16]) [%] | also measured
CNC(=O)/C(=N/OC)c1ccccc1COc1c(C)cccc1C | 90 | <90 | <90 | 90 | – | – | – | – | – | Activity (Botrytis cinerea [1]): 90%; Activity [5]: <90%; Activity (Podosphaera fuliginea [7]): 90%
CNC(=O)/C(=N/OC)c1ccccc1COc1c(F)cccc1F | – | – | 90 | – | 90 | 90 | 90 | – | – | Activity (Botrytis cinerea [10]): 90%; Activity [11]: 90%; Activity [13]: 90%
CNC(=O)/C(=N/OC)c1ccccc1COc1cccc(Cl)c1 | – | – | – | – | 90 | – | 90 | 90 | 90 | Activity [15]: 90%; Activity (Thanatephorus cucumeris [17]): 90%; Activity [13]: 90%
CNC(=O)/C(=N/OC)c1ccccc1COc1cc(C)c(C)cc1Cl | 90 | <90 | <90 | 90 | 90 | – | – | 90 | 90 | –
CNC(=O)/C(=N/OC)c1ccccc1COc1cc(C)cc(C)c1 | – | <90 | – | – | 90 | – | 90 | 90 | 90 | Activity (Thanatephorus cucumeris [17]): 90%; Activity [18]: 90%
CNC(=O)/C(=N/OC)c1ccccc1COc1cccc(Br)c1 | – | – | <90 | 90 | 90 | – | – | 90 | 90 | Activity [15]: 90%
CNC(=O)/C(=N/OC)c1ccccc1COc1cc(C)c(Cl)c(C)c1 | – | 90 | <90 | – | 90 | – | 90 | 90 | 90 | Activity [13]: 90%
CNC(=O)/C(=N/OC)c1ccccc1COc1cccc(F)c1 | – | – | 90 | – | – | 90 | 90 | – | – | Activity (Podosphaera fuliginea [19]): 90%; Activity [15]: 90%; Activity (Botrytis cinerea [10]): 90%; Activity [13]: 90%
CNC(=O)/C(=N/OC)c1ccccc1COc1cc(F)ccc1F | – | – | – | – | 90 | – | 90 | 90 | 90 | Activity [15]: 90%; Activity (Thanatephorus cucumeris [17]): 90%; Activity [18]: 90%
CNC(=O)/C(=N/OC)c1ccccc1COc1cc(Cl)cc(Cl)c1 | – | – | <90 | 90 | 90 | – | – | 90 | 90 | Activity [11]: 90%; Activity [13]: 90%
CNC(=O)/C(=N/OC)c1ccccc1COc1c(C)cc(C)cc1C | 90 | <90 | <90 | 90 | – | 90 | – | – | – | Activity (Botrytis cinerea [10]): 90%; Activity (Podosphaera fuliginea [7]): 90%
CNC(=O)/C(=N/OC)c1ccccc1COc1ccc(C(=O)c2ccccc2)cc1 | 90 | <90 | <90 | 90 | – | – | – | – | 90 | Activity (Podosphaera fuliginea [7]): <90%
CNC(=O)/C(=N/OC)c1ccccc1COc1c(C)ccc(C)c1C | <90 | 90 | <90 | 90 | – | – | – | – | – | Activity (Botrytis cinerea [1]): <90%; Activity [5]: <90%; Activity (Podosphaera fuliginea [7]): <90%
CNC(=O)/C(=N/OC)c1ccccc1COc1ccc(F)cc1 | – | – | 90 | 90 | 90 | 90 | – | – | 90 | Activity [11]: 90%; Activity [18]: 90%
CNC(=O)/C(=N/OC)c1ccccc1COc1cccc(F)c1F | – | <90 | <90 | <90 | 90 | 90 | – | – | 90 | Activity [18]: 90%
CNC(=O)/C(=N/OC)c1ccccc1COc1ccc(Cl)c(Cl)c1 | – | – | <90 | – | – | 90 | 90 | – | 90 | Activity (Podosphaera fuliginea [20]): 90%; Activity [11]: 90%; Activity [13]: 90%

Compound | Activity [2] [%] | Activity [3] [%] | Activity (Thanatephorus cucumeris [4]) [%] | Activity (Pyricularia oryzae [6]) [%] | Activity (Podosphaera fuliginea [8]) [%] | Activity [9] [%] | Activity (Pyricularia oryzae [12]) [%] | Activity [14] [%] | Activity (Botrytis cinerea [16]) [%] | also measured
C#CCOc1ccccc1OCc1ccccc1/C(=N\OC)C(=O)NC | <90 | <90 | <90 | 90 | – | – | – | – | – | Activity (Botrytis cinerea [1]): <90%; Activity [5]: 90%; Activity (Podosphaera fuliginea [7]): 90%
CNC(=O)/C(=N/OC)c1ccccc1COc1ccc(/C=C\c2ccccc2)cc1 | 90 | <90 | <90 | <90 | – | – | – | – | – | Activity (Botrytis cinerea [1]): <90%; Activity (Podosphaera fuliginea [7]): <90%
CNC(=O)/C(=N/OC)c1ccccc1COc1cccc([N+](=O)[O-])c1 | 90 | <90 | <90 | 90 | – | 90 | – | – | – | Activity (Podosphaera fuliginea [7]): <90%
CNC(=O)/C(=N/OC)c1ccccc1COc1ccc(Br)cc1 | – | – | <90 | – | 90 | 90 | 90 | – | 90 | Activity [11]: 90%; Activity [18]: 90%
CNC(=O)/C(=N/OC)c1ccccc1COc1ccc(C(F)(F)F)cc1 | – | – | <90 | – | 90 | 90 | 90 | – | 90 | Activity [15]: 90%; Activity [13]: 90%
CNC(=O)/C(=N/OC)c1ccccc1COc1ccccc1Cl | – | 90 | 90 | – | 90 | 90 | 90 | – | 90 | Activity [18]: 90%
CNC(=O)/C(=N/OC)c1ccccc1COc1cccc(Cl)c1Cl | – | <90 | <90 | – | – | – | 90 | 90 | – | Activity (Podosphaera fuliginea [20]): 90%; Activity (Botrytis cinerea [10]): 90%; Activity [21]: 90%
C#CCOc1cccc(OCc2ccccc2/C(=N\OC)C(=O)NC)c1 | 90 | 90 | <90 | 90 | – | – | – | 90 | – | Activity (Botrytis cinerea [10]): 90%; Activity (Podosphaera fuliginea [7]): 90%
CNC(=O)/C(=N/OC)c1ccccc1COc1cc(F)cc(F)c1 | – | – | 90 | – | 90 | 90 | 90 | – | 90 | Activity [11]: 90%; Activity [18]: 90%
CNC(=O)/C(=N/OC)c1ccccc1COc1ccccc1-c1ccccc1 | <90 | <90 | <90 | 90 | – | – | – | – | – | Activity (Botrytis cinerea [1]): <90%; Activity [5]: 90%; Activity (Podosphaera fuliginea [7]): 90%
CNC(=O)/C(=N/OC)c1ccccc1COc1ccc(C)cc1 | – | <90 | <90 | – | – | – | 90 | 90 | 90 | Activity (Podosphaera fuliginea [20]): 90%; Activity [18]: 90%
CNC(=O)/C(=N/OC)c1ccccc1COc1cc(Cl)c(Cl)cc1Cl | – | – | – | – | – | – | 90 | 90 | 90 | Activity (Podosphaera fuliginea [20]): 90%; Activity (Thanatephorus cucumeris [17]): 90%; Activity [21]: 90%; Activity [11]: 90%
CNC(=O)/C(=N/OC)c1ccccc1COc1ccccc1F | – | – | 90 | – | 90 | 90 | 90 | – | 90 | Activity [15]: 90%
C#CCOc1ccc(OCc2ccccc2/C(=N\OC)C(=O)NC)cc1 | 90 | – | <90 | – | 90 | 90 | 90 | – | 90 | Activity [11]: 90%
CNC(=O)/C(=N/OC)c1ccccc1COc1cc(Cl)cc(Cl)c1Cl | – | <90 | <90 | <90 | – | – | – | 90 | 90 | Activity (Podosphaera fuliginea [20]): 90%; Activity [21]: 90%
